For data set [1], the system named is Human immunodeficiency virus 1. Briefly: Antiviral activity against wild type HIV-1 IIIB infected in human MT2 cells assessed as protection against virus-induced cytopathicity by MTT assay. It counts as functional, organism-based. To be noted: Human immunodeficiency virus 1, IIIB.
For data set [2], the system named is Human immunodeficiency virus 1. The experiment in a line: Antiviral activity against HIV-1 harboring Y181C mutant infected in human MT2 cells assessed as protection against virus-induced cytopathicity by MTT assay. The data set is classed as functional, organism-based. To be noted: Human immunodeficiency virus 1, MT2.
For data set [3], the system named is Human immunodeficiency virus 1. The experiment in a line: Antiviral activity against HIV-1 harboring K103N/Y181C mutant infected in human MT2 cells assessed as protection against virus-induced cytopathicity by MTT assay. To be noted: Human immunodeficiency virus 1, MT2. The data set is classed as functional, organism-based.
Data set [4] relates to Human immunodeficiency virus 1. Briefly: Antiviral activity against HIV-1 harboring K101P mutant infected in human MT2 cells assessed as protection against virus-induced cytopathicity by MTT assay. It counts as functional, organism-based. The note with it: Human immunodeficiency virus 1, MT2.
The test system of data set [5] is Human immunodeficiency virus 1. The experiment in a line: Antiviral activity against wild type HIV-1 IIIB infected in human MT2 cells assessed as protection against virus-induced cytopathicity. The data set is classed as functional, organism-based. To be noted: Human immunodeficiency virus 1, IIIB.
Data set [6] relates to Human immunodeficiency virus 1. The experiment in a line: Antiviral activity against HIV-1 harboring K103N/Y181C mutant infected in human MT2 cells assessed as protection against virus-induced cytopathicity. It counts as functional, organism-based. To be noted: Human immunodeficiency virus 1, MT2.
A short description of data set [7]: Cytotoxicity against human MT2 cells assessed as cell viability. The data set is classed as toxicity, cell-based.
Data set [8] has as its system Human immunodeficiency virus 1. Briefly: Antiviral activity against wild type HIV-1 IIIB infected in human MT4 cells assessed as protection against virus-induced cytopathicity by MTT assay. It counts as functional, organism-based. To be noted: Human immunodeficiency virus 1, IIIB.
For data set [9], the system named is Human immunodeficiency virus 1. The experiment in a line: Antiviral activity against HIV-1 harboring E138K mutant infected in human MT4 cells assessed as protection against virus-induced cytopathicity by MTT assay. It counts as functional, organism-based. The note with it: Human immunodeficiency virus 1, MT4.
Data set [10] has as its system Human immunodeficiency virus 1. Briefly: Antiviral activity against HIV-1 harboring K103N mutant infected in human MT4 cells assessed as protection against virus-induced cytopathicity by MTT assay. The data set is classed as functional, organism-based. To be noted: Human immunodeficiency virus 1, MT4.
Data set [11] is described as follows: Cytotoxicity against human MT4 cells assessed as cell viability by MTT assay. The data set is classed as toxicity, cell-based.
Data set [12] is described as follows: Metabolic stability in rat liver microsomes assessed as clearance. To be noted: read-out: CLH. It counts as ADME, Microsome.
Data set [13] is described as follows: Metabolic stability in human liver microsomes assessed as clearance. It counts as ADME, Microsome. To be noted: read-out: CLH.
Data set [14] is described as follows: Oral bioavailability in Sprague-Dawley rat at 5 mg/kg measured up to 24 hrs by LC-MS analysis. The data set is classed as ADME, organism-based. The note with it: in vivo.
A further data set relates to HOS. Briefly: Cytotoxicity against human HOS cells assessed as reduction in cell viability measured after 48 hrs. The data set is classed as functional.

Bounds are passed on as bounds.

Results on twelve compounds are retold here after ChEMBL document CHEMBL5136999, “Contemporary Medicinal Chemistry Strategies for the Discovery and Development of Novel HIV-1 Non-nucleoside Reverse Transcriptase Inhibitors” (J Med Chem, 2022).

Regarding `N#Cc1cc2c(Oc3ccccc3OCCn3ccc(=O)[nH]c3=O)cccn2c1`, the EC50 in data set [1] was determined as 380 nM; in data set [2] it was 310 nM; in data set [3] it was 11 nM; in data set [4] it was 1 nM.
For the compound `Cc1c(Oc2ccccc2OCCn2ccc(=O)[nH]c2=O)cc(Cl)c2ccc(C#N)cc12`, the values for the 50% effective concentration (EC50) in data set [5] and in data set [6] were 6.2 nM and 280 nM, respectively. In [7], the 50% cytotoxic concentration (CC50) is over 100000 nM.
On to `Cc1c(Oc2ccccc2OCCn2ccc(=O)[nH]c2=O)cc(N(C)C(=O)CCl)c2ccc(C#N)cc12`, for which the figures for the half-maximal effective concentration (EC50) in data set [5] and in data set [6] were 580 nM and 570 nM, respectively.
For `C=CC(=O)N(C)c1cc(Oc2ccccc2OCCn2ccc(=O)[nH]c2=O)c(C)c2cc(C#N)ccc12` the same measures were 560 nM and 500 nM.
`Cc1cc(/C=C/C#N)cc([N+](=O)[O-])c1Nc1nc(Nc2ccc(C#N)cc2)nc2ccccc12`: the EC50 in [8] came to 3.4 nM; in data set [9], 4.3 nM; in [10], 3.6 nM. Moreover, in data set [11], the cytotoxic concentration (CC50) came out at 6140 nM. Besides, the microsomal CLint in data set [12] amounted to 33.2 µL/min/mg; in data set [13] it was 34.5 µL/min/mg. In [14], this compound had a bioavailability of 16.5%.
Regarding `Cc1cc(/C=C/C#N)cc(C)c1-n1cnc2cnc(Nc3ccc(C#N)cc3)nc21`, the CC50 in the data set on HOS amounted to 42000 nM.
For the compound `Cc1cc(/C=C/C#N)cc([N+](=O)[O-])c1Nc1nc(Nc2ccc(C#N)cc2)nc2ccc(Cl)cc12`, the EC50 was found to be 10.6 nM in data set [8], 17.7 nM in data set [9] and 10.2 nM in data set [10]. Also, the CC50 in data set [11] was 3950 nM. Besides, the microsomal CLint in data set [12] is 30.6 µL/min/mg; in data set [13], 14.4 µL/min/mg. In [14], the bioavailability was found to be 15.5%.
For the compound `Cc1cc(/C=C/C#N)cc(C)c1Nc1ncc2ncn(-c3ccc(C#N)cc3)c2n1`, the CC50 in the data set on HOS was found to be 21000 nM.
For `O=C1Nc2ccc(Cl)cc2[C@@](C#CC2CC2)(C(F)(F)F)O1` [EFAVIRENZ], the results for the concentration for a half-maximal effect (EC50) in data set [8] and in data set [10] were 3.2 nM and 147 nM, respectively. Also, the 50% cytotoxic concentration (CC50) in data set [11] was over 40200 nM.
In the case of `Cc1cc(C#N)cc(C)c1Oc1nc(Nc2ccc(C#N)cc2)nc(N)c1Br` [ETRAVIRINE], the EC50 in [9] was 10.9 nM; in [10], 3.5 nM. In addition, the CC50 in [11] is over 4620 nM.
For `Cc1ccnc2c1NC(=O)c1cccnc1N2C1CC1` [NEVIRAPINE], the EC50 in [2] and in [3] was over 100000 nM throughout.
As for `Cc1cc(/C=C/C#N)cc(C)c1Nc1ccnc(Nc2ccc(C#N)cc2)n1` [RILPIVIRINE], the cytotoxic concentration (CC50) in the data set with HOS worked out at 10000 nM.
